Laboratory results published in patent US9956157B2, “Composition containing fucosterol for skin whitening or moisturizing” (INDUSTRY-ACADEMIC COOPERATION FOUNDATION, YONSEI UNIVERSITY, priority 2014, dated 2018).

Tests used:
Format in all cases: cell-based
B16F10 melanoma cells = test: MTT cytotoxicity in B16F10 melanoma cells; settings: concentration of 0 to 20 μM, 48 hrs, FIG. 1
Procedure: B16F10 melanoma cells were incubated a dulbecco's modified eagle's media (DMEM) medium including 10% fetal bovine serum and then added in a 24-well plate with 2.5×10^4 cell/mL (the final volume of 1 mL). Fucosterol of 0.1, 1, 5, 10, and 20 μM was treated in the B16F10 melanoma cells, respectively. After treatment of 48 hrs, the medium was removed and a 0.5 mg/mL MTT solution was put in each well by 0.3 mL and the B16F10 melanoma cells were incubated in an incubator for 4 hrs. After 4 hrs, the MTT solution was removed and generated formazan was dissolved by adding dimetyl sulfoxide (DMSO) and then absorbance was measured at 570 nm and the result was illustrated in FIG. 1.

tyrosinase = target: T1, tyrosinase (Mus musculus, UniProt P11344); test: Tyrosinase activity (L-DOPA, dopachrome) in α-MSH-stimulated B16F10 melanoma cells; settings: 200 nM α-MSH, fucosterol 5, 10, 20 μM, 48 hrs, P<0.01, FIG. 4
T1 construct: endogenous in cells; host or cells: B16F10 melanoma cells (α-MSH stimulated)
T1 sequence (P11344 19-533): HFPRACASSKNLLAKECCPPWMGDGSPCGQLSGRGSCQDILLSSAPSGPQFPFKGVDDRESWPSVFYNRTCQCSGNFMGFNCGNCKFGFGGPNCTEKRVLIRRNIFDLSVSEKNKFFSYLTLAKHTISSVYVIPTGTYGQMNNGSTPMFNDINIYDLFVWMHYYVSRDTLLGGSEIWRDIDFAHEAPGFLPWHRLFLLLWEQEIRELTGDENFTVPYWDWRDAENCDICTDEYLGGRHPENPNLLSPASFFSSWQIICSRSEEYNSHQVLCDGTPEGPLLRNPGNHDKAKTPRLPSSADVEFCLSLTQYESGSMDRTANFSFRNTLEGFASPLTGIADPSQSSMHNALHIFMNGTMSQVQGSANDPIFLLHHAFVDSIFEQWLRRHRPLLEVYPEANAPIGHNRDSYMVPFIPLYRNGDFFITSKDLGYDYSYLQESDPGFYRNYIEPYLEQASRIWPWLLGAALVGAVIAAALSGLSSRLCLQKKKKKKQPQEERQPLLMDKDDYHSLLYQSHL
Procedure: B16F10 melanoma cells were incubated in a DMEM medium including 10% fetal bovine serum and then added in a 6-well plate with 2.5×10^5 cell/mL (the final volume of 3 mL). After being incubated for 24 hrs, the medium was removed and fucosterol which was dissolved in the DMEM medium including 200 nM α-MSH was treated at 5, 10, and 20 μM concentrations, respectively. After 48 hrs, the incubated medium was removed from the 6-well plate and PBS including 1% Triton X-100 was added to collect the cells. The collected cells were centrifuged for 10 min and 150 μL of a supernatant was put in a 96-well plate and 50 μL of L-3,4-dihydroxyphenylalanine (L-DOPA) was added. With respect to an amount of dopachrome generated after incubated for 30 min at 37° C., absorbance was measured at 475 nm by using a microplate reader (Versa max, Sunnyvale, Calif., USA). In this case, cells without the fucosterol were set to a control group and the tyrosinase activity degree was measured in the control group and cells treated with the fucosterol. According to Equation 2 below, the tyrosinase activity compared with the control group was calculated and the result was illustrated in FIG. 4. Tyrosinase activity (%) compared with control group=Reaction absorbance of each test material/Reaction absorbance of control group×100 [Equation 2]

loricrin = test: Loricrin mRNA expression (RT-PCR) in HaCaT human keratinocytes; settings: HaCaT cells, fucosterol 5, 10, 20 μM, 24 hrs, FIG. 9
Procedure: (§1) HaCaT human keratinocytes were incubated in a Dulbecco's Modified Eagle's Media (DMEM) medium including 10% fetal bovine serum and then put in a 6-well plate with 2×10^5 cell/ml (the final volume of 3 ml). After being incubated for 24 hrs, the medium was removed and fucosterol which was dissolved in the DMEM medium was treated at 5, 10, and 20 μM concentrations, respectively. After 24 hrs, the total RNA was collected by using a TRIzol reagent (Invitrogen, Carlsbad, Calif., USA) and reverse-transcribed and then a reverse transcription-polymerase chain reaction (RT-PCR) analysis was performed below. First, for cDNA synthesis, the RNA was reverse-transcribed by reverse transcriptase. The RT-PCR was performed by specific primers below and the result was illustrated in FIG. 9.

involucrin [1] = test: Involucrin mRNA expression (RT-PCR) in HaCaT human keratinocytes; settings: HaCaT cells, fucosterol 5, 10, 20 μM, 24 hrs, FIG. 9
Procedure: as §1

transglutaminase = test: Transglutaminase mRNA expression (RT-PCR) in HaCaT human keratinocytes; settings: HaCaT cells, fucosterol 5, 10, 20 μM, 24 hrs, FIG. 9
involucrin [2] = test: Involucrin protein expression (western blot) in HaCaT human keratinocytes; settings: HaCaT cells, fucosterol 5, 10, 20 μM, 24 hrs, FIG. 10
Procedure: HaCaT human keratinocytes were incubated in a Dulbecco's Modified Eagle's Media (DMEM) medium including 10% fetal bovine serum and then put in a 6-well plate with 2×10^5 cell/ml (the final volume of 3 ml). After being incubated for 24 hrs, the medium was removed and fucosterol which was dissolved in the DMEM medium was treated at 5, 10, and 20 μM concentrations, respectively. After 24 hrs, the HaCaT human keratinocytes were lysed with a NP40 buffer solution including proteinase inhibitor cocktail. The protein amount extracted from the HaCaT human keratinocytes was quantified by using a Bradford method. The sample was boiled for 5 min and then the same amount of protein ([…]) was isolated by electrophoresis with 10% SDS-PAGE. The isolated proteins after electrophoresis were transferred to a nitrocellular membrane and western blot was performed. A primary antibody was reacted and the nitrocellular membrane was washed three times by using Tris-buffer saline tween20 (TBST) for 10 min. In this case, the kind and the dilution of the primary antibody used in the present invention is 1:1000. In a secondary antibody reaction, a secondary antibody was put in the membrane performing the primary antibody reaction and reacted for 2 hrs at room temperature. In this case, a dilution of the secondary antibody was 1:5000. […]

filaggrin = test: Filaggrin mRNA expression (RT-PCR) in HaCaT human keratinocytes; settings: HaCaT cells, fucosterol 5, 10, 20 μM, 24 hrs, FIG. 11
Procedure: as §1, with “11.” for “9.”

caspase 14 = test: Caspase 14 mRNA expression (RT-PCR) in HaCaT human keratinocytes; settings: HaCaT cells, fucosterol 5, 10, 20 μM, 24 hrs, FIG. 11
Procedure: as §1, with “11.” for “9.”

Q: With `C/C=C(\CC[C@@H](C)[C@H]1CC[C@H]2[C@@H]3CC=C4C[C@@H](O)CC[C@]4(C)[C@H]3CC[C@]12C)C(C)C` [fucosterol] as the compound, how does the “cytotoxicity (MTT)” value (B16F10 melanoma cells) read?
A: the cytotoxicity was not shown

Q: And the “inhibitory effect on tyrosinase activity” value (tyrosinase)?
A: very excellent inhibitory effect

Q: What about the “mRNA expression of loricrin” value (loricrin) of the same compound?
A: increased

Q: And the “mRNA expression of involucrin” value (involucrin [1])?
A: increased

Q: What about the “mRNA expression of transglutaminase” value (transglutaminase) of the same compound?
A: increased

Q: What about the “protein expression of involucrin” value (involucrin [2]) of the same compound?
A: increased

Q: And the “mRNA expression of filaggrin” value (filaggrin)?
A: increased

Q: And the “mRNA expression of caspase 14” value (caspase 14)?
A: increased
